Measured values reported in patent US3965109A, “Certain aryl amino pyridines” (priority 1971, dated 1976).

Key:
[1] = test system: Tetranychus telarius (red spider mites, adults); experiment: Pest toxicity test; format: in vivo; conditions: 0.1% by weight; French bean; 3 days
[2] = test system: Tetranychus telarius (red spider mites, eggs); experiment: Pest toxicity test; format: in vivo; conditions: 0.1% by weight; French bean; 3 days
Aphis fabae = experiment: Pest toxicity test; format: in vivo; conditions: 0.1% by weight; broad bean; 2 days
Megoura viceae = experiment: Pest toxicity test; format: in vivo; conditions: 0.1% by weight; broad bean; 2 days
[3] = test system: Aedes aegypti (mosquito larvae); experiment: Pest toxicity test; format: in vivo; conditions: for Mortality grading (kill): 0.01% by weight, water, 1 day; for abnormal growth effects in larva of mosquitos: in vivo
[4] = test system: Aedes aegypti (mosquito adults); experiment: Pest toxicity test; format: in vivo; conditions: 0.01% by weight; plywood; 1 day
[5] = test system: Pieris brassicae (cabbage white caterpillars); experiment: Pest toxicity test; format: in vivo; conditions: 0.1% by weight, 2 days
[6] = test system: Plutella maculipennis (diamond back moth larvae); experiment: Pest toxicity test; format: in vivo
[7] = test system: Phaedon cochleariae (mustard beetles); experiment: Pest toxicity test; format: in vivo
[8] = test system: Meloidogyne incognita (nematodes); experiment: Pest toxicity test; format: in vivo; conditions: 0.01% by weight; water; 1 day
[9] = test system: Agriolimax reticulatus (slugs); experiment: Molluscicidal activity test; format: in vivo, Agriolimax reticulatus (Mull); conditions: pellet with 4% by weight; 6 days; 10°C
How it was run: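 Slugs were starved for 24 hours, then housed two per dish, in duplicate, under high humidity at 10°C. They fed on pellets dried to contain 4% w/w of test compound. Mortality was scored on day 6.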

[10] = test system: Musca domestica (houseflies); experiment: Pest toxicity test, contact test; format: in vivo; conditions: 0.1% by weight; milk/sugar; 2 days; flies sprayed directly
[11] = test system: Puccinia recondita (wheat); experiment: Fungicidal test against foliar disease A (foliage spray plus soil drench); format: in vivo; conditions: 100 ppm spray and drench; 10 days
[12] = test system: Plasmopara viticola (vine); experiment: Fungicidal test against foliar disease C (foliage spray plus soil drench); format: in vivo; conditions: 100 ppm spray and drench; 10 days
Uncinula necator (vine) = experiment: Fungicidal test against foliar disease D (foliage spray plus soil drench); format: in vivo; conditions: 100 ppm spray and drench; 10 days
[13] = test system: Piricularia oryzae (rice); format: in vivo; conditions: 100 ppm spray and drench; 7 days
[14] = test system: Agrobacterium tumifaciens; experiment: Antibacterial agar test (B1); format: cell-based; conditions: 50 ppm; 5 days
[15] = test system: Corynebacterium michiganense; experiment: Antibacterial agar test (B2); format: cell-based; conditions: 50 ppm; 5 days
Experimental: (§1) This Example illustrates the activity of compounds used as the active ingredients of compositions according to the invention against a variety of plant bacterial diseases and fungal post-harvest saprophytic diseases. In a test for such activity, 5 milligrams of the compound to be tested was dissolved or suspended in 10 ml. of acetone and enough of this solution or suspension was added to 18 ml. of nutrient agar (for the bacterial diseases) or 16 ml. of 2% malt agar (for the fungal diseases) to give a final concentration of 50 parts per million of the compound under test. A streptomycin preparation (2 ml. containing 100 units per ml.) was added to the malt agar to prevent bacterial contamination of the fungal tests.
(§2) The agar preparations were dried overnight in Petri dishes and inoculated the following morning with the bacterial or fungal diseases using a multipoint inoculator. The antibacterial activity was assessed after 5 days and the antifungal activity after 6 days. The results of the tests are set out in Table 16 (anti bacterial activity) and Table 17 (antifungal activity). The results are graded as in Example 1 above.

Xanthomonas malvacearum = experiment: Antibacterial agar test (B3); format: cell-based; conditions: 50 ppm; 5 days
Experimental: as §1, §2

Erwinia carotovora = experiment: Antibacterial agar test (B4); format: cell-based; conditions: 50 ppm; 5 days
Xanthomonas oryzae = format: cell-based; conditions: 50 ppm; 5 days
Pseudomonas syringae = experiment: Antibacterial agar test (B6); format: cell-based; conditions: 50 ppm; 5 days
Streptomyces scabies = experiment: Antibacterial agar test (B7); format: cell-based; conditions: 50 ppm; 5 days
[16] = 0.1% by weight, mustard/paper, 2 days

SMILES: COc1ccc(Nc2c(Cl)c(F)nc(F)c2Cl)c([N+](=O)[O-])c1 [Compound 18, 3,5-Dichloro-2,6-difluoro-4(4-methoxy-2-nitroanilino)pyridine]
- Mortality grading (kill) [1]: 0 (O represents less than 30% kill)
- Mortality grading (kill) [2]: 2 (2 represents 60 - 90% kill)
- Mortality grading (kill) (Aphis fabae): 0 (O represents less than 30% kill)
- Mortality grading (kill) (Megoura viceae): 0 (O represents less than 30% kill)
- Mortality grading (kill) [3]: 0 (O represents less than 30% kill)
- Mortality grading (kill) [4]: 0 (O represents less than 30% kill)
- Mortality grading (kill) [5]: 0 (O represents less than 30% kill)
- Mortality grading (kill) ([6]; in vivo): 0 (key: O represents less than 30% kill; 1 represents 30 - 49% kill; 2 represents 60 - 90% kill; 3 represents over 90% kill; C indicates a chemosterilant effect.; A indicates an antifeeding effect.)
- Mortality grading (kill) ([7]; in vivo): 0 (key: O represents less than 30% kill; 1 represents 30 - 49% kill; 2 represents 60 - 90% kill; 3 represents over 90% kill; C indicates a chemosterilant effect.; A indicates an antifeeding effect.)
- Mortality grading (kill) [8]: 0 (O represents less than 30% kill)
- % Kill of slugs [9]: 50%

SMILES: Fc1ccc(Nc2c(Cl)c(F)nc(F)c2Cl)cc1 [Compound 4, 3,5-Dichloro-2,6-difluoro-4(p-fluoroanilino)pyridine]
- Mortality grading (kill) [1]: 0 (O represents less than 30% kill)
- Mortality grading (kill) [2]: 0 (O represents less than 30% kill)
- Mortality grading (kill) (Aphis fabae): 0 (O represents less than 30% kill)
- Mortality grading (kill) (Megoura viceae): 0 (O represents less than 30% kill)
- Mortality grading (kill) [3]: 0 (O represents less than 30% kill)
- abnormal growth effects in larva of mosquitos [3]: abnormal growth effects
- Mortality grading (kill) [4]: 0 (O represents less than 30% kill)
- Mortality grading (kill), contact test [10]: 0 (O represents less than 30% kill)
- Mortality grading (kill) [5]: 0 (O represents less than 30% kill)
- Mortality grading (kill) [6, 16]: 0 (O represents less than 30% kill)
- Mortality grading (kill) [7, 16]: 0 (O represents less than 30% kill)
- Mortality grading (kill) [8]: 2 (2 represents 60 - 90% kill)
- % Kill of slugs [9]: 100%

SMILES: Fc1nc(F)c(Cl)c(Nc2cc(C(F)(F)F)ccc2Br)c1Cl [Compound 13, 3,5-Dichloro-2,6-difluoro-4(2-bromo-5-trifluoromethylanilino)pyridine]
- Amount of disease grading, disease A [11]: 0 (61 to 100)
- Amount of disease grading, disease C [12]: 3 (0 to 5)
- Amount of disease grading, disease D (Uncinula necator (vine)): 0 (61 to 100)
- Amount of disease grading, disease E [13]: 2 (6 to 25)
- Mortality grading (kill) [1]: 0 (O represents less than 30% kill)
- Mortality grading (kill) [2]: 0 (O represents less than 30% kill)
- Mortality grading (kill) (Aphis fabae): 0 (O represents less than 30% kill)
- Mortality grading (kill) (Megoura viceae): 0 (O represents less than 30% kill)
- Mortality grading (kill) [3]: 0 (O represents less than 30% kill)
- abnormal growth effects in larva of mosquitos [3]: abnormal growth effects
- Mortality grading (kill) [4]: 0 (O represents less than 30% kill)
- Mortality grading (kill), contact test [10]: 0 (O represents less than 30% kill)
- Mortality grading (kill) [5]: 0 (O represents less than 30% kill)
- Mortality grading (kill) ([6]; in vivo): 0 (key: O represents less than 30% kill; 1 represents 30 - 49% kill; 2 represents 60 - 90% kill; 3 represents over 90% kill; C indicates a chemosterilant effect.; A indicates an antifeeding effect.)
- Mortality grading (kill) ([7]; in vivo): 0 (key: O represents less than 30% kill; 1 represents 30 - 49% kill; 2 represents 60 - 90% kill; 3 represents over 90% kill; C indicates a chemosterilant effect.; A indicates an antifeeding effect.)
- Mortality grading (kill) [8]: 0 (O represents less than 30% kill)

SMILES: O=[N+]([O-])c1ccc(Nc2c(F)c(F)nc(F)c2F)c([N+](=O)[O-])c1 [Compound 15, 4(2,4-Dinitroanilino)-tetrafluoropyridine]
- Amount of disease grading, disease A [11]: 2 (6 to 25)
- Amount of disease grading, disease C [12]: 3 (0 to 5)
- Amount of disease grading, disease D (Uncinula necator (vine)): 3 (0 to 5)
- Mortality grading (kill) [1]: 3 (3 represents over 90% kill)
- Mortality grading (kill) [2]: 2 (2 represents 60 - 90% kill)
- Mortality grading (kill) (Aphis fabae): 0 (O represents less than 30% kill)
- Mortality grading (kill) (Megoura viceae): 0 (O represents less than 30% kill)
- Mortality grading (kill) [3]: 0 (O represents less than 30% kill)
- Mortality grading (kill) [4]: 0 (O represents less than 30% kill)
- Mortality grading (kill), contact test [10]: 2 (2 represents 60 - 90% kill)
- Mortality grading (kill) [5]: 3 (3 represents over 90% kill)
- Mortality grading (kill) ([6]; in vivo): 0 (key: O represents less than 30% kill; 1 represents 30 - 49% kill; 2 represents 60 - 90% kill; 3 represents over 90% kill; C indicates a chemosterilant effect.; A indicates an antifeeding effect.)
- Mortality grading (kill) ([7]; in vivo): 2 (key: O represents less than 30% kill; 1 represents 30 - 49% kill; 2 represents 60 - 90% kill; 3 represents over 90% kill; C indicates a chemosterilant effect.; A indicates an antifeeding effect.)
- % Kill of slugs [9]: 50%
- Antibacterial activity grading B1 [14]: 3 (0 to 5)
- Antibacterial activity grading B2 [15]: 3 (0 to 5)
- Antibacterial activity grading B3 (Xanthomonas malvacearum): 3 (0 to 5)
- Antibacterial activity grading B4 (Erwinia carotovora): 3 (0 to 5)
- Antibacterial activity grading B5 (Xanthomonas oryzae): 3 (0 to 5)
- Antibacterial activity grading B6 (Pseudomonas syringae): 3 (0 to 5)
- Antibacterial activity grading B7 (Streptomyces scabies): 3 (0 to 5)

SMILES: O=[N+]([O-])c1ccccc1Nc1c(Cl)c(F)nc(F)c1Cl [Compound 11, 3,5-Dichloro-2,6-difluoro-4(2-nitroanilino)pyridine]
- Mortality grading (kill) [1]: 0 (O represents less than 30% kill)
- Mortality grading (kill) [2]: 0 (O represents less than 30% kill)
- Mortality grading (kill) (Aphis fabae): 0 (O represents less than 30% kill)
- Mortality grading (kill) (Megoura viceae): 0 (O represents less than 30% kill)
- Mortality grading (kill) [3]: 0 (O represents less than 30% kill)
- Mortality grading (kill) [4]: 0 (O represents less than 30% kill)
- Mortality grading (kill), contact test [10]: 0 (O represents less than 30% kill)
- Mortality grading (kill) [5]: 0 (O represents less than 30% kill)
- Mortality grading (kill) ([6]; in vivo): 0 (key: O represents less than 30% kill; 1 represents 30 - 49% kill; 2 represents 60 - 90% kill; 3 represents over 90% kill; C indicates a chemosterilant effect.; A indicates an antifeeding effect.)
- Mortality grading (kill) ([7]; in vivo): 0 (key: O represents less than 30% kill; 1 represents 30 - 49% kill; 2 represents 60 - 90% kill; 3 represents over 90% kill; C indicates a chemosterilant effect.; A indicates an antifeeding effect.)
- Mortality grading (kill) [8]: 2 (2 represents 60 - 90% kill)
